The record followed here is PubChem BioAssay AID504313 (Emory University Molecular Libraries Screening Center, 2011).

Calls of active or inactive are those of the source. No rule for the calls is given here.

Broadly, the IC50 is the point on the concentration scale where inhibition reaches its midpoint.

For the experiment, the target named is X-box-binding protein 1 (Homo sapiens) (UniProt P17861). Briefly: XBP1 reporter suppression in cells – counter-screen, dose response (AID 504313).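 Also: CHO cells carrying an XBP1 reporter stimulated with tunicamycin; potency is for inhibition of the tunicamycin-induced reporter signal.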 The conditions noted are these: XBP1 reporter cell assay, percent of control. A general note: A counterscreen serves to expose hits that act by an unwanted route or on another target.
With `COc1ccc(/C=C2/SC(=S)N(CCCC(=O)Nc3ccc(O)cc3)C2=O)cc1`, the IC50 was 0.18 µM.

`CN1C2CCC1/C(=C/c1ccccn1)C(=O)/C2=C\c1ccccn1`: the IC50 was 0.54 µM.

Consider `Cc1ccc(N2C(=O)NC(=O)/C(=C\C=C\c3ccco3)C2=O)cc1`, for which the IC50 result is “inactive”.

In the case of `CCN=C1NN=C(c2cc(C)n(Cc3ccco3)c2C)CS1`, the IC50 was below 0.16 µM.

Take `N#C/C(=C\c1ccc([N+](=O)[O-])o1)C(=O)Nc1ccc(F)cc1`: the IC50 is > 10 µM (inactive).

Take `CC(C)CC(NC(=O)c1ccc(Cl)cc1)C(=O)OCC(=O)c1ccc2c(c1)NC(=O)CO2` (stereo not given): the IC50 entry was “inactive”.

As for `O=C1c2ccccc2-c2onc3ccc(Oc4ccccc4)c1c23`, the IC50 entry was “inactive”.

As to `O=C(CN1C(=O)c2ccccc2S1(=O)=O)c1ccc2c(c1)OCCCO2`, the IC50 is 0.37 µM.

As for `CC(=O)N(C1=C(Cl)C(=O)c2ccccc2C1=O)C1CCCCC1`, the IC50 entry was “inactive”.

Turning to `C=CCn1c(C)cc(C2=NNC(=NCC)SC2)c1C`, the IC50 is < 0.16 µM (inactive).

As for `CC(C)(C)c1ccc(O)c(N=Cc2cc(Br)ccc2O)c1`, the IC50 entry was “inactive”.

Take `CCOC(=O)CCS(=O)(=O)c1nc(-c2ccccc2)cc(C(F)(F)F)n1`: the IC50 entry is “inactive”.

As to `O=C(Nc1cccc(-c2nc3ncccc3o2)c1)c1sc2ccccc2c1Cl`, the IC50 was > 10 µM (inactive).

`Cc1cc(C)n(-c2nc(Nc3ccccc3C(F)(F)F)nc(-n3nc(C)cc3C)n2)n1`: the IC50 result was “inactive”.

Take `Cc1cc(/C=N/n2cnnc2)c(C)n1-c1ccc(OCc2ccc(F)cc2)cc1`: the IC50 entry was “inactive”.

Take `Cc1ccc(NC(=O)CSc2nc3ccccc3c3nc(CCc4c(C)n[nH]c4C)nn23)cc1F`: the IC50 is > 10 µM (inactive).

For the compound `CCCc1cc(C(=O)Cc2ccc(F)cc2)c(O)cc1O`, the IC50 entry was “inactive”.

As for `Nc1c(C(=O)Nc2ccccc2F)sc2nc(-c3cccnc3)ccc12`, the IC50 was > 10 µM (inactive).

As to `CC(=O)C1=C(c2ccc(Br)cc2)C(=O)c2ccccc2C1=O`, the IC50 is 0.99 µM.

Consider `CCOC(=O)c1c(C)[nH]c2c1-c1ccccc1C(=O)C2=O`, for which the IC50 was 1.41 µM.

Consider `COc1ccc(NS(=O)(=O)c2ccc(O)c(NC(=O)c3cc4c(C)nn(-c5ccc(F)cc5)c4s3)c2)cc1`, for which the IC50 is > 10 µM (inactive).

For `O=C1CC(c2cccc(Cl)c2)CC(O)=C1C=Nc1cccc(Cl)c1` (stereo not given), the IC50 was > 10 µM (inactive).

Consider `COC(=O)c1cc(NC(=S)Nc2cc(Cl)cc(Cl)c2)cc(C(=O)OC)c1`, for which the IC50 is > 10 µM (inactive).

As for `Cc1ccc(Cn2c(SCC(=O)Nc3cc(C)on3)nc3ccccc3c2=O)cc1`, the IC50 is > 10 µM (inactive).

Take `O=C(CSC1c2ccccc2-c2ccccc21)N/N=C/c1ccccc1O`: the IC50 was > 10 µM (inactive).

Turning to `NC(=O)CC(NC(=O)Cc1cccc2ccccc12)c1ccc(NCc2ccc(F)cc2)c([N+](=O)[O-])c1` (stereo not given), the IC50 is > 10 µM (inactive).

Regarding `Cc1cc(C(=O)N/N=C/c2ccc(-c3cccc(Cl)c3Cl)o2)n[nH]1`, the IC50 was > 10 µM (inactive).

For the compound `COc1cc(/C=C2\CC/C(=C\c3cc(OC)c(O)c(OC)c3)C2=O)cc(OC)c1O`, the IC50 result was “inactive”.

With `COc1ccccc1-c1cc(C(F)(F)F)nc(S(=O)(=O)CCCC(=O)NC(C)C)n1`, the IC50 result is “inactive”.

On to `CCCCCCCCCCCCCCCCn1cc[n+](C)c1`, for which the IC50 result was “inactive”.

As for `COc1ccc(/C=C2/C(=O)ON=C2c2ccccc2)cc1OC`, the IC50 was > 10 µM (inactive).

In the case of `CCn1c(=O)c(C(=O)Nc2nc3ccccc3[nH]2)c(O)c2ccccc21`, the IC50 result is “inactive”.

As for `Cc1nn(Cc2c(Cl)cccc2Cl)c(C)c1NC(=O)c1cn(-c2ccccc2)nc1-c1ccccc1`, the IC50 result is “inactive”.

Regarding `NC(=O)CC(NC(=O)Cc1cccc2ccccc12)c1ccc(NCCOc2ccccc2)c([N+](=O)[O-])c1` (stereo not given), the IC50 was > 10 µM (inactive).

Take `O=C(N/N=C/c1cccs1)c1cccc(NC(=O)c2ccc(Cl)cc2)c1`: the IC50 entry is “inactive”.
